Source: patent US20260159536A1, “AKR1C3-ACTIVATED DNA ALKYLATING AGENT, AND MEDICAL APPLICATION THEREOF” (ASCENTAWITS PHARMACEUTICALS, LTD., priority 2021, published 2026)
Like-named read-outs stand apart in the source and are kept apart here.

What was measured:
[1] = Chiral stability under long-term and accelerated storage conditions; format: physicochemical
Description: Isomer stability under long-term and accelerated conditions was studied.
Compound A and isomers A-P1 and A-P2 were investigated for traits and isomeric stability at −20±5° C., 5° C.±3° C., 25° C.±2° C. (60%±5% RH) and 40° C.±2° C.

[2] = system: HuPrime model GA6201 human gastric cancer; details: for Tumor volume: 60 mg/kg i.p.
Description: The test was divided into groups of the test drug Isocyclophosphamide 60 mg/kg group, the test drug AST-3424 5 mg/kg group, the test drug A compound 2.5 mg/kg and 5 mg/kg groups, and normal saline (pH 7.0-7.6) vehicle control group, a total of 5 groups, with 5 mice per group.
In the above dosing regimen, Isocyclophosphamide was designed based on the best dosing regimen with maximum safe dosage as recited in the document (Jessica D. Sun, Qian Liu, Dharmendra Ahluwalia, Damien J. Ferraro, Yan Wang, Don Jung, Mark D. Matteucci, and Charles P. Hart. Comparison of hypoxia-activated prodrug evofosfamide (TH-302) and ifosfamide in preclinical non-small cell lung cancer models [J]. Cancer Biology & Therapy, 2016, 17(4): 371-380).

in vitro = details: for metabolite AST-2660 detection: from Compound A
Description: (1) Compound A for test, progesterone positive control, and 100 mM stock solutions of AST-3021 inhibitor were prepared and stored in the freezer (−10° C. to −30° C.).
1) Negative control group: at different time points (0 and 60 min), 30 μL/well of hepatocyte cytosol suspension containing 7.5 μM of sample for test was distributed in a 96-well plate. Three replicate wells were prepared in parallel.
2) Positive control group: at different time points (0, 5, 15, 30, 45 and 60 min), 30 μL/well of hepatocyte cytosol suspension containing 7.5 μM of the positive control was distributed in a 96-well plate. Three replicate wells were prepared in parallel.
3) Normal reaction group: at different time points (0, 5, 15, 30, 45 and 60 min), 30 μL/well of hepatocyte cytosol suspension containing 7.5 μM of sample for test was distributed in a 96-well plate. Three replicate wells were prepared in parallel.
4) Inhibition reaction group: at different time points (0, 5, 15, 30, 45 and 60 min), 30 μL/well of hepatocyte cytosol suspension containing […] of sample for test and 4.5 μM of the inhibitor was distributed in a 96-well plate. Three replicate wells were prepared in parallel.
6) 0 min samples: after 150 μL/well of acetonitrile containing the internal standard was added, then 15 μL/well of pre-heated NADPH working solution was added to the samples of normal reaction group, inhibition reaction group and positive control group, and 15 μL/well of pre-heated potassium phosphate buffer was added to the samples of negative control group.
7) Other samples (5, 15, 30, 45 and 60 min): for normal reaction group, inhibition reaction group and positive control group, 15 μL/well of pre-heated NADPH working solution was added to start the reaction; for negative control group, 15 μL/well of pre-heated potassium phosphate buffer was added. The reaction plates were then continued to incubate in a 37° C. water bath and the reactions were stopped by the addition of 150 μL/well of stop solution at the corresponding time points (5, 15, 30, 45 and 60 min).
The concentration of analyte in each sample was expressed as a peak area ratio (peak area analyte/peak areainternal standard), then the peak area ratio at 0 min was used as a reference to calculate the % Remaining at each time point of the incubation, and the ln logarithmic value of the % Remaining was linearly fitted to the incubation time and the half-life was calculated according to the following formula.
In the absence of AST-3021, 5 μM of progesterone was co-incubated with 2 mM of NADPH and 1 mg/mL of hepatocyte cytosol for 0-60 min as a positive control.

[3] = 25° C. ± 2° C./60% ± 5% RH, 1 month
[4] = 25° C. ± 2° C./60% ± 5% RH, 3 months
[5] = 40° C. ± 2° C./75% ± 5% RH, 1 month
[6] = 60 mg/kg i.p. 5 days on, 2 days off, 2 weeks, Day 38

O=[N+]([O-])c1ccc(C(OP(=O)(N2CC2)N2CC2)C(F)(F)F)cc1Oc1ccc(-c2ccc(F)cc2)c(F)c1 (single isomer, unassigned) [A-P2]
Isomer peak A-P1 ([1]; 0 month): 0.25% | Isomer peak A-P2 ([1]; 0 month): 99.75% | Isomer peak A-P1 ([1]; 5° C. ± 3° C., 1 month): 0.25% | Isomer peak A-P2 ([1]; 5° C. ± 3° C., 1 month): 99.75% | Isomer transformation ([1]; 5° C. ± 3° C., 1 month): 0.00% | Isomer peak A-P1 ([1]; 5° C. ± 3° C., 3 months): 0.25% | Isomer peak A-P2 ([1]; 5° C. ± 3° C., 3 months): 99.75% | Isomer transformation ([1]; 5° C. ± 3° C., 3 months): 0.00% | Isomer peak A-P1 [1, 3]: 0.25% | Isomer peak A-P2 [1, 3]: 99.75% | Isomer transformation [1, 3]: 0.00% | Isomer peak A-P1 [1, 4]: 0.25% | Isomer peak A-P2 [1, 4]: 99.75% | Isomer transformation [1, 4]: 0.00% | Isomer peak A-P1 [1, 5]: 0.26% | Isomer peak A-P2 [1, 5]: 99.74% | Isomer transformation [1, 5]: 0.01% | colour and chirality after storage ([1]; −20° C., 5° C., 25° C./60% RH 3 months, 40° C./75% RH 1 month): essentially no change | Isomer peak A-P1 ([1]; −20 ± 5° C., 3 months): 0.26% | Isomer peak A-P2 ([1]; −20 ± 5° C., 3 months): 99.74% | Isomer transformation ([1]; −20 ± 5° C., 3 months): −0.01%

O=P1(NCCCl)OCCCN1CCCl (centres unmarked) [Isocyclophosphamide, reference compound]
Relative tumor volume (x ± S) [2, 6]: 3.85 ± 0.63 | T/C (%) [2, 6]: 41.17% | TGI (%) [2, 6]: 58.83% | Tumor volume (x ± S) [2, 6]: 371.02 ± 75.96 | Tumor volume ([2]; 0 day): 94.15 mm^3 | Tumor volume ([2]; 3 days): 122.22 mm^3 | Tumor volume ([2]; 7 days): 129.39 mm^3 | Tumor volume ([2]; 10 days): 175.00 mm^3 | Tumor volume ([2]; 14 days): 190.74 mm^3 | Tumor volume ([2]; 17 days): 189.23 mm^3 | Tumor volume ([2]; 21 days): 217.96 mm^3 | Tumor volume ([2]; 24 days): 225.66 mm^3 | Tumor volume ([2]; 28 days): 247.04 mm^3 | Tumor volume ([2]; 31 days): 265.76 mm^3 | Tumor volume ([2]; 35 days): 324.51 mm^3 | Tumor volume ([2]; 38 days): 371.02 mm^3 | Tumor volume ([2]; 42 days): 403.47 mm^3 | Tumor volume ([2]; 45 days): 484.83 mm^3 | Tumor volume ([2]; 49 days): 578.60 mm^3

CC(=O)[C@H]1CC[C@H]2[C@@H]3CCC4=CC(=O)CC[C@]4(C)[C@H]3CC[C@]12C [Progesterone]
half-life at 5 µM (in vitro; CD-1, mouse, hepatocyte cytosol, Metabolic parameter t1/2, mouse, 2 mM NADPH, no AST-3021 (normal reaction / positive control group), 5 μM): 37.7 min | half-life at 5 µM (in vitro; SD, rat, hepatocyte cytosol, Metabolic parameter t1/2, rat, 2 mM NADPH, no AST-3021 (normal reaction / positive control group), 5 μM): 22.3 min | half-life at 5 µM (in vitro; cynomolgus (printed as 'machins'), monkey, cytosol): 13.2 min | Metabolic parameter k (in vitro; human, 2 mM NADPH, no AST-3021 (normal reaction / positive control group), 5 μM): 0.0543 | average % Remaining (in vitro; human, 2 mM NADPH, no AST-3021 (normal reaction / positive control group), 5 μM, 0 min): 100.00% | average % Remaining (in vitro; human, 2 mM NADPH, no AST-3021 (normal reaction / positive control group), 5 μM, 5 min): 80.76% | average % Remaining (in vitro; human, 2 mM NADPH, no AST-3021 (normal reaction / positive control group), 5 μM, 15 min): 55.69% | average % Remaining (in vitro; human, 2 mM NADPH, no AST-3021 (normal reaction / positive control group), 5 μM, 30 min): 20.59% | average % Remaining (in vitro; human, 2 mM NADPH, no AST-3021 (normal reaction / positive control group), 5 μM, 45 min): 7.72% | average % Remaining (in vitro; human, 2 mM NADPH, no AST-3021 (normal reaction / positive control group), 5 μM, 60 min): 0.46% | Metabolic parameter k (in vitro; monkey, 2 mM NADPH, no AST-3021 (normal reaction / positive control group), 5 μM): 0.0525 | average % Remaining (in vitro; monkey, 2 mM NADPH, no AST-3021 (normal reaction / positive control group), 5 μM, 0 min): 100.00% | average % Remaining (in vitro; monkey, 2 mM NADPH, no AST-3021 (normal reaction / positive control group), 5 μM, 5 min): 82.47% | average % Remaining (in vitro; monkey, 2 mM NADPH, no AST-3021 (normal reaction / positive control group), 5 μM, 15 min): 59.82% | average % Remaining (in vitro; monkey, 2 mM NADPH, no AST-3021 (normal reaction / positive control group), 5 μM, 30 min): 28.19% | average % Remaining (in vitro; monkey, 2 mM NADPH, no AST-3021 (normal reaction / positive control group), 5 μM, 45 min): 10.01% | average % Remaining (in vitro; monkey, 2 mM NADPH, no AST-3021 (normal reaction / positive control group), 5 μM, 60 min): 3.26% | Metabolic parameter k (in vitro; mouse, 2 mM NADPH, no AST-3021 (normal reaction / positive control group), 5 μM): 0.0184 | average % Remaining (in vitro; mouse, 2 mM NADPH, no AST-3021 (normal reaction / positive control group), 5 μM, 0 min): 100.00% | average % Remaining (in vitro; mouse, 2 mM NADPH, no AST-3021 (normal reaction / positive control group), 5 μM, 5 min): 89.61% | average % Remaining (in vitro; mouse, 2 mM NADPH, no AST-3021 (normal reaction / positive control group), 5 μM, 15 min): 78.52% | average % Remaining (in vitro; mouse, 2 mM NADPH, no AST-3021 (normal reaction / positive control group), 5 μM, 30 min): 62.61% | average % Remaining (in vitro; mouse, 2 mM NADPH, no AST-3021 (normal reaction / positive control group), 5 μM, 45 min): 44.84% | average % Remaining (in vitro; mouse, 2 mM NADPH, no AST-3021 (normal reaction / positive control group), 5 μM, 60 min): 31.03% | Metabolic parameter k (in vitro; rat, 2 mM NADPH, no AST-3021 (normal reaction / positive control group), 5 μM): 0.0311 | average % Remaining (in vitro; rat, 2 mM NADPH, no AST-3021 (normal reaction / positive control group), 5 μM, 0 min): 100.00% | average % Remaining (in vitro; rat, 2 mM NADPH, no AST-3021 (normal reaction / positive control group), 5 μM, 5 min): 84.80% | average % Remaining (in vitro; rat, 2 mM NADPH, no AST-3021 (normal reaction / positive control group), 5 μM, 15 min): 69.77% | average % Remaining (in vitro; rat, 2 mM NADPH, no AST-3021 (normal reaction / positive control group), 5 μM, 30 min): 45.51% | average % Remaining (in vitro; rat, 2 mM NADPH, no AST-3021 (normal reaction / positive control group), 5 μM, 45 min): 21.61% | average % Remaining (in vitro; rat, 2 mM NADPH, no AST-3021 (normal reaction / positive control group), 5 μM, 60 min): 4.70%

O=P(O)(N1CC1)N1CC1 [AST-2660]
metabolite AST-2660 detection (in vitro; human, no NADPH, no AST-3021): not detected | metabolite AST-2660 detection (in vitro; human, with NADPH): a small amount | metabolite AST-2660 detection (in vitro; human, with NADPH and AST-3021): not detected | metabolite AST-2660 detection (in vitro; monkey, no NADPH, no AST-3021): not detected | metabolite AST-2660 detection (in vitro; monkey, with NADPH): a small amount | metabolite AST-2660 detection (in vitro; monkey, with NADPH and AST-3021): detected in only one monkey 60-min sample | metabolite AST-2660 detection (in vitro; mouse, no NADPH, no AST-3021): not detected | metabolite AST-2660 detection (in vitro; mouse, with NADPH): not detected | metabolite AST-2660 detection (in vitro; mouse, with NADPH and AST-3021): not detected | metabolite AST-2660 detection (in vitro; rat, no NADPH, no AST-3021): not detected | metabolite AST-2660 detection (in vitro; rat, with NADPH): not detected | metabolite AST-2660 detection (in vitro; rat, with NADPH and AST-3021): not detected
